# Patent EP4603105A1, “PHARMACEUTICAL COMPOSITION CONTAINING CYCLIC COMPOUND HAVING SELECTIVE KRAS INHIBITORY EFFECT AGAINST HRAS AND NRAS” (CHUGAI SEIYAKU KABUSHIKI KAISHA, priority 2022, dated 2024)
# Where two headings read alike, the source gives them in different places.
# Tests used:
# [1] = target: GDP-bound NRAS wild-type protein (Homo sapiens, UniProt P01111); experiment: Binding to NRAS by surface plasmon resonance (SPR), KD and KD ratio to KRAS
# Outline: (§1)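 SPR, 30°C: Avi-biotin RAS·GDP captured via Biotin CAPture (~100–300 RU); running buffer HBS pH 7.4, 1 mM DTT, 10 mM MgCl2, 0.01% Tween 20, 10 µM GDP, 4% DMSO. Single-cycle kinetics, 100 µL/min, 75 s injections; 1:1 model → KD.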
# [2] = target: GDP-bound KRAS wild-type protein (Homo sapiens, UniProt P01116); experiment: Binding to KRAS by surface plasmon resonance (SPR), dissociation constant KD
# Outline: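 Measured at 30°C: SPR with GDP-loaded, E. coli-expressed biotin-Avi RAS captured (~100–300 RU), ascending 75 s compound injections, HBS pH 7.4 with GDP, MgCl2, 4% DMSO. KD from 1:1 fit.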
# [3] = target: HRAS wild-type protein (Homo sapiens, UniProt P01112); experiment: Binding to HRAS by surface plasmon resonance (SPR), KD and KD ratio to KRAS
# Outline: as §1
# [4] = tested on: human lung cancer strain NCI-H441; experiment: NCI-H441 cell proliferation inhibitory activity (CellTiter-Glo, 4 days); type: cell-based; details: read-out: NCl-H441 IC50
# Outline: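 Proliferation was scored by […] measured after the reagent was added to cultures kept at 37°C in 5% carbon dioxide.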
# [5] = ratio of KD with respect to GDP-bound NRAS wild-type protein to KD with respect to KRAS
# [6] = Single Cycle Kinetics, 1:1 binding model
# [7] = ratio of KD with respect to HRAS wild-type protein to KD with respect to KRAS
# [8] = 50% proliferation inhibitory concentration, four days
# [9] = ratio of KD for GDP-bound NRAS wild-type protein to KD for KRAS
# [10] = ratio of KD for HRAS wild-type protein to KD for KRAS
# Chain of HRAS wild-type protein (P01112 whole entry): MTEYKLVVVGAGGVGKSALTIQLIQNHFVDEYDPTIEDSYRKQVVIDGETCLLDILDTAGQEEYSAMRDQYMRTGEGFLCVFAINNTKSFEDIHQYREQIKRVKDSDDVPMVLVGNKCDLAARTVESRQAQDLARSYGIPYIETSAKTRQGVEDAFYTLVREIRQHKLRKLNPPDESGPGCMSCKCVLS
# Chain of GDP-bound KRAS wild-type protein (P01116 1-188 isoform P01116-2): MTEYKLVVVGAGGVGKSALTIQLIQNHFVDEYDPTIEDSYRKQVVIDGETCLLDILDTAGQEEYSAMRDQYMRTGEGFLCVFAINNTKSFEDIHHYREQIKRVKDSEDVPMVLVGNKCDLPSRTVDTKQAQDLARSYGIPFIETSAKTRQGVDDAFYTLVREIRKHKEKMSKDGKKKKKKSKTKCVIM
# Chain of GDP-bound NRAS wild-type protein (P01111 whole entry): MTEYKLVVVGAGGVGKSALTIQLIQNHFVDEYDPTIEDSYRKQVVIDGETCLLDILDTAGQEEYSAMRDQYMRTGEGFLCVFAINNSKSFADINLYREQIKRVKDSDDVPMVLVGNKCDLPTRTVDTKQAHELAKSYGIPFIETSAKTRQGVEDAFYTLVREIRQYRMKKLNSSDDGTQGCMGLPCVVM
structure (smiles),measurement,setting,value
CCCC[C@H]1C(=O)NC2(CCC2)C(=O)N(C)[C@@H](C2CCCC2)C(=O)N(C)[C@H](C(=O)N(C)C)CC(=O)N(C)[C@@H](CC)C(=O)N[C@@H]([C@@H](C)CC)C(=O)N(C)CC(=O)N(C)[C@H]2C/C=C\CCN(C2=O)[C@@H](Cc2ccc(C(F)(F)F)cc2)C(=O)N(C)CC(=O)N[C@@H](CCc2cc(F)c(C(F)(F)F)c(F)c2)C(=O)N1C [PP1150],NRAS /KRAS,[1]; [5],AA (a compound having 20 or more is denoted as AA)
same,Kd,[2]; [6],0.17 nM
same,HRAS /KRAS,[3]; [7],A (a compound having 10 or more and less than 20 is denoted as A)
same,IC50,[4]; [8],42.7 nM
CCO[C@@H]1C[C@H]2C(=O)NC3(CCC3)C(=O)N(C)[C@@H](C3CCCC3)C(=O)N(C)[C@H](C(=O)N3CCCCC3)CC(=O)N(C)[C@@H](CC3CC3)C(=O)N[C@@H]([C@@H](C)CC)C(=O)N(C)CC(=O)N(C)[C@H]3C/C=C\CCN(C3=O)[C@@H](Cc3ccc(C(F)(F)F)cc3)C(=O)N(C)CC(=O)N[C@@H](CCc3cc(F)c(C(F)(F)F)c(F)c3)C(=O)N2C1 [PP1291],NRAS /KRAS,[1]; [5],A (a compound having 10 or more and less than 20 is denoted as A)
same,Kd,[2]; [6],0.24 nM
same,HRAS /KRAS,[3]; [7],A (a compound having 10 or more and less than 20 is denoted as A)
same,IC50,[4]; [8],16.7 nM
CCO[C@@H]1C[C@H]2C(=O)NC3(CCC3)C(=O)N(C)[C@@H](C3CCCC3)C(=O)N(C)[C@H](C(=O)N3CCOCC3)CC(=O)N(C)[C@@H](CC(C)C)C(=O)N[C@@H]([C@@H](C)CC)C(=O)N3CC[C@H]3C(=O)N(C)[C@H]3CC[C@@H](C)CN(C3=O)[C@@H](Cc3ccc(C(F)(F)F)cc3)C(=O)N(C)CC(=O)N[C@@H](CCc3cc(F)c(C(F)(F)F)c(F)c3)C(=O)N2C1 [PP1373],NRAS /KRAS,[1]; [5],B (a compound having 3 or more and less than 10 is denoted as B)
same,Kd,[2]; [6],0.35 nM
same,HRAS /KRAS,[3]; [7],B (a compound having 3 or more and less than 10 is denoted as B)
same,IC50,[4]; [8],12.2 nM
CCC[C@H]1C(=O)N[C@@H](CC(C)C)C(=O)N2C[C@@H](OC)C[C@H]2C(=O)N(C)[C@H]2C/C=C\CCN(C2=O)[C@@H](Cc2ccc(C)cc2)C(=O)N(C)CC(=O)N[C@@H](CCc2ccc(C(F)(F)F)c(OC)c2)C(=O)N2C[C@H](OCC)C[C@H]2C(=O)NC2(CCC2)C(=O)N(C)[C@@H](C2CCCC2)C(=O)N(C)[C@H](C(=O)N(C)C)CC(=O)N1C [PP2548],NRAS /KRAS,[1]; [9],A (a compound having 10 or more and less than 20 is denoted as A)
same,Kd,[2]; 1:1 binding model,7.8 nM
same,HRAS /KRAS,[3]; [10],B (a compound having 3 or more and less than 10 is denoted as B)
same,IC50,"[4]; NCI-H441 cells, 4 days",1050 nM
CCC[C@H]1C(=O)N[C@@H]([C@@H](C)CC)C(=O)N(C2CC2)CC(=O)N(C)[C@H]2C/C=C\CCN(C2=O)[C@@H](Cc2ccc(C)cc2)C(=O)N(C)CC(=O)N[C@@H](CCc2ccc(C(F)(F)F)c(Cl)c2)C(=O)N2CC[C@H](OC)[C@H]2C(=O)N(C)C2(CCC2)C(=O)N(C)[C@@H](C2CCCC2)C(=O)N(C)[C@H](C(=O)N(C)C)CC(=O)N1C [PP3233],NRAS /KRAS,[1]; [9],A (a compound having 10 or more and less than 20 is denoted as A)
same,Kd,[2]; Single Cycle Kinetics,0.25 nM
same,HRAS /KRAS,[3]; [10],A (a compound having 10 or more and less than 20 is denoted as A)
same,IC50,"[4]; NCI-H441 cells, 4 days",9.3 nM
CCOC[C@H]1C(=O)N[C@@H]([C@@H](C)CC)C(=O)N(C)CC(=O)N(C)[C@H]2C/C=C\CCN(C2=O)[C@@H](Cc2ccc(C)cc2)C(=O)N(C)CC(=O)N[C@@H](CCc2ccc(C(F)(F)F)c(OC)c2)C(=O)N2C[C@H](C)C[C@H]2C(=O)NC2(CC(C)(C)C2)C(=O)N(C)[C@@H](C2CCCC2)C(=O)N(C)[C@H](C(=O)N(C)C)CC(=O)N1C [PP2393],NRAS /KRAS,[1]; [9],A (a compound having 10 or more and less than 20 is denoted as A)
same,Kd,[2]; 1:1 binding model,0.12 nM
same,HRAS /KRAS,[3]; [10],A (a compound having 10 or more and less than 20 is denoted as A)
same,IC50,"[4]; NCI-H441 cells, 4 days",28.2 nM
CCCO[C@@H]1C[C@H]2C(=O)NC3(CC(C)(C)C3)C(=O)N(C)[C@@H](C3CCCC3)C(=O)N(C)[C@H](C(=O)N(C)CC)CC(=O)N(C)[C@@H](COCC)C(=O)N[C@@H]([C@@H](C)CC)C(=O)N3C[C@@H](C)C[C@H]3C(=O)N(C)[C@H]3C/C=C\CCN(C3=O)[C@@H](Cc3ccc(C)cc3)C(=O)N(C)CC(=O)N[C@@H](CCc3cc(F)c(C(F)(F)F)c(F)c3)C(=O)N2C1 [PP3460],NRAS /KRAS,[1]; [9],A (a compound having 10 or more and less than 20 is denoted as A)
same,Kd,[2]; Single Cycle Kinetics,3.1 nM
same,HRAS /KRAS,[3]; [10],A (a compound having 10 or more and less than 20 is denoted as A)
same,IC50,"[4]; NCI-H441 cells, 4 days",115 nM
CCO[C@@H]1C[C@H]2C(=O)NC3(CCC3)C(=O)N(C)[C@@H](C3CCCC3)C(=O)N(C)[C@H](C(=O)N(C)C)CC(=O)N(C)[C@@H](CC(C)(C)C)C(=O)N[C@@H]([C@@H](C)CC)C(=O)N(C)CC(=O)N(C)[C@H]3C/C=C\CCN(C3=O)[C@@H](CC3CCC(F)(F)CC3)C(=O)N(C)CC(=O)N[C@@H](CCc3cc(F)c(C(F)(F)F)c(F)c3)C(=O)N2C1 [PP1460],NRAS /KRAS,[1]; [5],A (a compound having 10 or more and less than 20 is denoted as A)
same,Kd,[2]; [6],0.23 nM
same,HRAS /KRAS,[3]; [7],A (a compound having 10 or more and less than 20 is denoted as A)
same,IC50,[4]; [8],32.9 nM
CCO[C@@H]1C[C@H]2C(=O)NC3(CCC3)C(=O)N(C)[C@@H](C3CCCC3)C(=O)N(C)[C@H](C(=O)N(C)C)CC(=O)N(C)[C@@H](Cc3ccccc3C#N)C(=O)N[C@@H]([C@@H](C)CC)C(=O)N(C)CC(=O)N(C)[C@H]3CCCCCN(C3=O)[C@@H](Cc3ccc(C(F)(F)F)cc3)C(=O)N(C)CC(=O)N[C@@H](CCc3cc(F)c(C(F)(F)F)c(F)c3)C(=O)N2C1 [PP1171],NRAS /KRAS,[1]; [5],B (a compound having 3 or more and less than 10 is denoted as B)
same,Kd,[2]; [6],0.69 nM
same,HRAS /KRAS,[3]; [7],B (a compound having 3 or more and less than 10 is denoted as B)
same,IC50,[4]; [8],118 nM
CCC[C@H]1C(=O)N[C@@H]([C@@H](C)CC)C(=O)N2CCC[C@H]2C(=O)N(C)[C@H]2C/C=C\CCN(C2=O)[C@@H](Cc2ccc(C)cc2)C(=O)N(C)CC(=O)N[C@@H](CCc2cc(F)c(C(F)(F)F)c(F)c2)C(=O)N2C[C@H](OCC)C[C@H]2C(=O)NC2(CCCC2)C(=O)N(C)[C@@H](C2CCCC2)C(=O)N(C)[C@H](C(=O)N(C)C)CC(=O)N1C [PP3480],NRAS /KRAS,[1]; [9],A (a compound having 10 or more and less than 20 is denoted as A)
same,Kd,[2]; Single Cycle Kinetics,0.49 nM
same,HRAS /KRAS,[3]; [10],A (a compound having 10 or more and less than 20 is denoted as A)
same,IC50,"[4]; NCI-H441 cells, 4 days",12.9 nM
CCO[C@@H]1C[C@H]2C(=O)OC3(CCC3)C(=O)N(C)[C@@H](C3CCCC3)C(=O)N(C)[C@H](C(=O)N(C)C)CC(=O)N(C)[C@@H](CC(C)C)C(=O)N[C@@H]([C@@H](C)CC)C(=O)N(C3CC3)CC(=O)N(C)[C@H]3C/C=C\CCN(C3=O)[C@@H](Cc3ccc(C)cc3)C(=O)N(C)CC(=O)N[C@@H](CCc3ccc(C(F)(F)F)c(OC)c3)C(=O)N2C1 [PP3381],NRAS /KRAS,[1]; [9],A (a compound having 10 or more and less than 20 is denoted as A)
same,Kd,[2]; Single Cycle Kinetics,1.1 nM
same,HRAS /KRAS,[3]; [10],A (a compound having 10 or more and less than 20 is denoted as A)
same,IC50,"[4]; NCI-H441 cells, 4 days",18.7 nM
CCC[C@H]1C(=O)N[C@@H]([C@@H](C)CC)C(=O)N(C2CC2)CC(=O)N(C)[C@H]2C/C=C\CCN(C2=O)[C@@H](Cc2ccc(C(F)(F)F)cc2)C(=O)N(C)CC(=O)N[C@@H](CCc2ccc(C(F)(F)F)c(OC)c2)C(=O)N2C[C@@H](C)C[C@H]2C(=O)N(C)C2(CCC2)C(=O)N(C)[C@@H](C2CCCC2)C(=O)N(C)[C@H](C(=O)N(C)C)CC(=O)N1C [PP2360],NRAS /KRAS,[1]; [9],A (a compound having 10 or more and less than 20 is denoted as A)
same,Kd,[2]; 1:1 binding model,0.16 nM
same,HRAS /KRAS,[3]; [10],B (a compound having 3 or more and less than 10 is denoted as B)
same,IC50,"[4]; NCI-H441 cells, 4 days",2.9 nM
CCC[C@H]1C(=O)N[C@@H]([C@@H](C)CC)C(=O)N(C2CC2)CC(=O)N(C)[C@H]2C/C=C\CCN(C2=O)[C@@H](Cc2ccc(C(F)(F)F)cc2)C(=O)N(C)CC(=O)N[C@@H](CCc2cc(F)c(C(F)(F)F)c(F)c2)C(=O)N2CC[C@H](OC)[C@H]2C(=O)N(C)C2(CCC2)C(=O)N(C)[C@@H](C2CCCC2)C(=O)N(C)[C@H](C(=O)N(C)C)CC(=O)N1C [PP3282],NRAS /KRAS,[1]; [9],A (a compound having 10 or more and less than 20 is denoted as A)
same,Kd,[2]; Single Cycle Kinetics,0.2 nM
same,HRAS /KRAS,[3]; [10],A (a compound having 10 or more and less than 20 is denoted as A)
same,IC50,"[4]; NCI-H441 cells, 4 days",8.3 nM
CCO[C@@H]1C[C@H]2C(=O)NC3(CCC3)C(=O)N(C)[C@@H](C3CCCC3)C(=O)N(C)[C@H](C(=O)N3CCOCC3)CC(=O)N(C)[C@@H](CC)C(=O)N[C@@H]([C@@H](C)CC)C(=O)N3CC[C@H]3C(=O)N(C)[C@H]3CC[C@@H](C)CN(C3=O)[C@@H](Cc3ccc(C(F)(F)F)cc3)C(=O)N(C)CC(=O)N[C@@H](CCc3ccc(C(F)(F)F)c(Cl)c3)C(=O)N2C1 [PP1375],NRAS /KRAS,[1]; [5],B (a compound having 3 or more and less than 10 is denoted as B)
same,Kd,[2]; [6],0.23 nM
same,HRAS /KRAS,[3]; [7],B (a compound having 3 or more and less than 10 is denoted as B)
same,IC50,[4]; [8],11.5 nM
